From BindingDB's records for doi:10.1016/S0960-894X(00)80623-X (1992)

Target: HMG-CoA reductase (Bos taurus)
Assay: Compound was evaluated for inhibitory activity against HMG-CoA reductase in bovine ocular cell preparation

Question: How did the IC50 turn out when Cn1nnnc1C(/C=C/[C@@H](O)C[C@@H](O)CC(=O)O)=C(c1ccc(F)cc1)c1ccc(F)cc1 was run?
Answer: Its IC50 is 3000 nM.
